Reference: patent US20250268884A1, “Deuterated Domperidone for Treating Gastroparesis” (CinDome Pharma, Inc., priority 2022, published 2025)

System: adults with idiopathic or diabetic gastroparesis
Experiment: ANMS GCSI-DD total and subscale scores, ANMS GCSI-DD manual scoring method, Phase 2a
Assay type: in vivo, human
Settings: for ANMS GCSI-DD early satiety subscale score, Baseline / ANMS GCSI-DD early satiety subscale score, Change from baseline to Day 14/EOT / ANMS GCSI-DD early satiety subscale score, Day 14/EOT / ANMS GCSI-DD early satiety subscale score, Percent change from baseline to Day 14/EOT / ANMS GCSI-DD nausea subscale score, Baseline / ANMS GCSI-DD nausea subscale score, Change from baseline to Day 14/EOT / ANMS GCSI-DD nausea subscale score, Day 14/EOT / ANMS GCSI-DD nausea subscale score, Percent change from baseline to Day 14/EOT / ANMS GCSI-DD postprandial fullness subscale score, Baseline / ANMS GCSI-DD postprandial fullness subscale score, Change from baseline to Day 14/EOT / ANMS GCSI-DD postprandial fullness subscale score, Day 14/EOT / ANMS GCSI-DD postprandial fullness subscale score, Percent change from baseline to Day 14/EOT / ANMS GCSI-DD total score, Baseline / ANMS GCSI-DD total score, Day 14/EOT / ANMS GCSI-DD total score, change from baseline to Day 14/EOT / ANMS GCSI-DD total score, percent change from baseline to Day 14/EOT / ANMS GCSI-DD upper abdominal pain subscale score, Baseline / ANMS GCSI-DD upper abdominal pain subscale score, Change from baseline to Day 14/EOT / ANMS GCSI-DD upper abdominal pain subscale score, Day 14/EOT / ANMS GCSI-DD upper abdominal pain subscale score, Percent change from baseline to Day 14/EOT / ANMS GCSI-DD vomiting subscale score, Baseline / ANMS GCSI-DD vomiting subscale score, Change from baseline to Day 14/EOT / ANMS GCSI-DD vomiting subscale score, Day 14/EOT / ANMS GCSI-DD vomiting subscale score, Percent change from baseline to Day 14/EOT: mean, ITT Population
From the text: As known in the art, the ANMS GCSI-DD covers 5 core relevant symptoms of gastroparesis: nausea, early satiety, postprandial fullness, upper abdominal pain and vomiting. Bloating is included as an exploratory symptom. Symptoms are rated on a severity numeric response scale from 0 (none) to 4 (very severe). Vomiting is captured on a frequency response scale and scored as follows: 0 for no episodes, 1 for one episode, 2 for 2 episodes, 3 for 3 episodes, and 4 for 4 or more episodes. In some embodiments, subjects recall symptoms over the previous 24 hours and completes the ANMS GCSI-DD patient-reported symptom questionnaire. In certain embodiments, the total ANMS GCSI-DD score is calculated as the mean of the 3 subscale scores for severity of nausea/vomiting, postprandial fullness/early satiety, and bloating. See, e.g., “The Use Manual for the ANMS GCSI-DD,” American Neurogastroenterology and Motility Society Gastroparesis Cardinal Symptom Index Daily Diary, 2018; https://www.fda.gov/media/125038/download. In other embodiments, the total ANMS GCSI-DD score is calculated using the ‘manual’ scoring method. The ANMS GCSI-DD manual scoring method is generated by summing the scores on each of the five symptom items (nausea, early satiety, postprandial fullness, upper abdominal pain, and number of vomiting episodes) and then dividing by 5, that is the number of items within the gastroparesis related symptom score. […] The ANMS GCSI-DD gastroparesis symptom daily score can range from 0 to 4. High scores on the ANMS GCSI-DD reflect greater symptom severity. See, e.g., “User Manuel for the ANMS GCSI-DD,” Federal Drug Administration at https://www.fda.gov/media/125038/download, which is hereby incorporated by reference.
The severity scores of 4 gastroparesis-related symptoms (nausea, early satiety, postprandial fullness, upper abdominal pain) range from 0-none to 4-very severe. The vomiting score assesses the number of vomiting episodes during the day, capped at a maximum of 4; thus, the scores for vomiting range from 0 (no episodes of vomiting) to 4 (4 or more episodes of vomiting). Vomiting frequency is scored as 0 episodes, 1 episode, 2 episodes, 3 episodes, or 4 or more episodes (capped as 4).
Table 11 presents the ANMS GCSI-DD total and subscale scores and change and percent change from baseline for the ITT Population using the ANMS GC SI-DD Manual scoring method. […] Subjects receiving placebo also experienced decreases in ANMS GCSI-DD total and subscale scores.

[2H]c1c([2H])c([2H])c2c([nH]c(=O)n2CCCN2CCC(n3c(=O)[nH]c4cc(Cl)ccc43)CC2)c1[2H] [Deudomperidone, 1-{3-[4-(5-chloro-2-oxo-2,3-dihydro-1H-1,3-benzodiazol-1-yl)piperidin-1yl]propyl}-2,3-dihydro(4,5,6,7-D4)-1H-1,3-benzodiazol-2-one]
ANMS GCSI-DD early satiety subscale score, Baseline (5 mg BID): 2.63 | ANMS GCSI-DD early satiety subscale score, Change from baseline to Day 14/EOT (5 mg BID): −0.85 | ANMS GCSI-DD early satiety subscale score, Day 14/EOT (5 mg BID): 1.78 | ANMS GCSI-DD early satiety subscale score, Percent change from baseline to Day 14/EOT (5 mg BID): −30.65% | ANMS GCSI-DD nausea subscale score, Baseline (5 mg BID): 2.59 | ANMS GCSI-DD nausea subscale score, Change from baseline to Day 14/EOT (5 mg BID): −0.93 | ANMS GCSI-DD nausea subscale score, Day 14/EOT (5 mg BID): 1.67 | ANMS GCSI-DD nausea subscale score, Percent change from baseline to Day 14/EOT (5 mg BID): −41.32% | ANMS GCSI-DD postprandial fullness subscale score, Baseline (5 mg BID): 2.93 | ANMS GCSI-DD postprandial fullness subscale score, Change from baseline to Day 14/EOT (5 mg BID): −0.70 | ANMS GCSI-DD postprandial fullness subscale score, Day 14/EOT (5 mg BID): 2.22 | ANMS GCSI-DD postprandial fullness subscale score, Percent change from baseline to Day 14/EOT (5 mg BID): −26.11% | ANMS GCSI-DD total score, Baseline (5 mg BID): 2.16 | ANMS GCSI-DD total score, Day 14/EOT (5 mg BID): 1.47 | ANMS GCSI-DD total score, change from baseline to Day 14/EOT (5 mg BID): −0.69 | ANMS GCSI-DD total score, percent change from baseline to Day 14/EOT (5 mg BID): −35.01% | ANMS GCSI-DD upper abdominal pain subscale score, Baseline (5 mg BID): 2.19 | ANMS GCSI-DD upper abdominal pain subscale score, Change from baseline to Day 14/EOT (5 mg BID): −0.85 | ANMS GCSI-DD upper abdominal pain subscale score, Day 14/EOT (5 mg BID): 1.33 | ANMS GCSI-DD upper abdominal pain subscale score, Percent change from baseline to Day 14/EOT (5 mg BID): −43.15% | ANMS GCSI-DD vomiting subscale score, Baseline (5 mg BID): 0.44 | ANMS GCSI-DD vomiting subscale score, Change from baseline to Day 14/EOT (5 mg BID): −0.11 | ANMS GCSI-DD vomiting subscale score, Day 14/EOT (5 mg BID): 0.33 | ANMS GCSI-DD vomiting subscale score, Percent change from baseline to Day 14/EOT (5 mg BID): −64.00% | ANMS GCSI-DD early satiety subscale score, Baseline (10 mg BID): 2.67 | ANMS GCSI-DD early satiety subscale score, Change from baseline to Day 14/EOT (10 mg BID): −1.08 | ANMS GCSI-DD early satiety subscale score, Day 14/EOT (10 mg BID): 1.62 | ANMS GCSI-DD early satiety subscale score, Percent change from baseline to Day 14/EOT (10 mg BID): −40.56% | ANMS GCSI-DD nausea subscale score, Baseline (10 mg BID): 2.52 | ANMS GCSI-DD nausea subscale score, Change from baseline to Day 14/EOT (10 mg BID): −1.20 | ANMS GCSI-DD nausea subscale score, Day 14/EOT (10 mg BID): 1.34 | ANMS GCSI-DD nausea subscale score, Percent change from baseline to Day 14/EOT (10 mg BID): −48.88% | ANMS GCSI-DD postprandial fullness subscale score, Baseline (10 mg BID): 3.01 | ANMS GCSI-DD postprandial fullness subscale score, Change from baseline to Day 14/EOT (10 mg BID): −1.24 | ANMS GCSI-DD postprandial fullness subscale score, Day 14/EOT (10 mg BID): 1.79 | ANMS GCSI-DD postprandial fullness subscale score, Percent change from baseline to Day 14/EOT (10 mg BID): −41.52% | ANMS GCSI-DD total score, Baseline (10 mg BID): 2.14 | ANMS GCSI-DD total score, Day 14/EOT (10 mg BID): 1.17 | ANMS GCSI-DD total score, change from baseline to Day 14/EOT (10 mg BID): −0.98 | ANMS GCSI-DD total score, percent change from baseline to Day 14/EOT (10 mg BID): −44.07% | ANMS GCSI-DD upper abdominal pain subscale score, Baseline (10 mg BID): 1.79 | ANMS GCSI-DD upper abdominal pain subscale score, Change from baseline to Day 14/EOT (10 mg BID): −0.80 | ANMS GCSI-DD upper abdominal pain subscale score, Day 14/EOT (10 mg BID): 0.97 | ANMS GCSI-DD upper abdominal pain subscale score, Percent change from baseline to Day 14/EOT (10 mg BID): −50.43% | ANMS GCSI-DD vomiting subscale score, Baseline (10 mg BID): 0.71 | ANMS GCSI-DD vomiting subscale score, Change from baseline to Day 14/EOT (10 mg BID): −0.59 | ANMS GCSI-DD vomiting subscale score, Day 14/EOT (10 mg BID): 0.14 | ANMS GCSI-DD vomiting subscale score, Percent change from baseline to Day 14/EOT (10 mg BID): −71.73% | ANMS GCSI-DD early satiety subscale score, Baseline (20 mg QD): 2.64 | ANMS GCSI-DD early satiety subscale score, Change from baseline to Day 14/EOT (20 mg QD): −1.44 | ANMS GCSI-DD early satiety subscale score, Day 14/EOT (20 mg QD): 1.20 | ANMS GCSI-DD early satiety subscale score, Percent change from baseline to Day 14/EOT (20 mg QD): −54.88% | ANMS GCSI-DD nausea subscale score, Baseline (20 mg QD): 2.67 | ANMS GCSI-DD nausea subscale score, Change from baseline to Day 14/EOT (20 mg QD): −1.93 | ANMS GCSI-DD nausea subscale score, Day 14/EOT (20 mg QD): 0.73 | ANMS GCSI-DD nausea subscale score, Percent change from baseline to Day 14/EOT (20 mg QD): −62.56% | ANMS GCSI-DD postprandial fullness subscale score, Baseline (20 mg QD): 2.84 | ANMS GCSI-DD postprandial fullness subscale score, Change from baseline to Day 14/EOT (20 mg QD): −1.31 | ANMS GCSI-DD postprandial fullness subscale score, Day 14/EOT (20 mg QD): 1.53 | ANMS GCSI-DD postprandial fullness subscale score, Percent change from baseline to Day 14/EOT (20 mg QD): −45.50% | ANMS GCSI-DD total score, Baseline (20 mg QD): 2.13 | ANMS GCSI-DD total score, Day 14/EOT (20 mg QD): 0.88 | ANMS GCSI-DD total score, change from baseline to Day 14/EOT (20 mg QD): −1.25 | ANMS GCSI-DD total score, percent change from baseline to Day 14/EOT (20 mg QD): −55.99% | ANMS GCSI-DD upper abdominal pain subscale score, Baseline (20 mg QD): 1.96 | ANMS GCSI-DD upper abdominal pain subscale score, Change from baseline to Day 14/EOT (20 mg QD): −1.09 | ANMS GCSI-DD upper abdominal pain subscale score, Day 14/EOT (20 mg QD): 0.87 | ANMS GCSI-DD upper abdominal pain subscale score, Percent change from baseline to Day 14/EOT (20 mg QD): −41.03% | ANMS GCSI-DD vomiting subscale score, Baseline (20 mg QD): 0.53 | ANMS GCSI-DD vomiting subscale score, Change from baseline to Day 14/EOT (20 mg QD): −0.47 | ANMS GCSI-DD vomiting subscale score, Day 14/EOT (20 mg QD): 0.07 | ANMS GCSI-DD vomiting subscale score, Percent change from baseline to Day 14/EOT (20 mg QD): −94.64% | ANMS GCSI-DD total score and all subscale scores at Day 14/EOT, manual scoring (all deudomperidone treatment groups, placebo also decreased): decreased from baseline
